≈ marks a conversion by molar mass, not a printed value.
What was measured:
[1] = FaSSIF solubility; assay type: physicochemical; details: FaSSIF buffer, 25 °C, fassif, thermodynamic from solid
Experimental: Stock solution of test article and control compound (chlorpromazine, astemizole, and phenytoin) were prepared in DMSO at 10 mM. 50 μL each of stock solutions were dried down, followed by reconstitution to 1 mM with FaSSIF buffer in the well. The incubation plate was shaked at 25° C., 1,100 rpm for 4 hours. And then, the samples were filtered by using the vacuum manifold. 10 μL aliquots from each well was transferred to a new 96-well plate and adjust the volume to 80 μL with blank buffer. Using a mixture of H2O and acetonitrile containing internal standard (1:1) to dilute the sample 100-fold, 500-fold and 2,500-fold. The samples are evaluated by LC/MS/MS analysis. All compounds were tested in singlet.

[2] = Rat IV/PO PK study, Method A; assay type: in vivo, male Sprague Dawley (SD) rats; details: for half-life: 1 mg/kg, elimination half life (IV); for half-life / bioavailability: Method A; for bioavailability: PO vs IV, read-out: Bioavailablility (% F)
Experimental: Pharmacokinetics (PK) study was conducted on male Sprague Dawley (SD) rats by two delivery routes intravenous (IV) and/or oral gavage (PO). Rats in IV route (n=3) were free access to food and water. Rats in PO route (n=3) were fasted overnight and fed at 4 hrs post dosing. Test article was formulated in solution (10% solutol HS 15 in saline) for IV route and solution or suspension (10% solutol HS 15 in saline/water) for PO route, respectively. On the day of experiment, test article was administered via vein (e.g. foot dorsal vein) injection (commonly at 1 mg/kg and 5 mL/kg) for IV route or via oral gavage (commonly at 2 or 5 mg/kg and 5 mL/kg) for PO route, respectively. Blood samples were collected via serial bleeding at ˜8 time points from 0.083 to 24 hrs post dose. Approximate 150 μL of blood/time point was collected into K2EDTA tube via tail vein or jugular vein. Blood samples were put on wet ice and centrifuged to obtain plasma samples and plasma samples were submitted to LC-MS/MS for sample analysis. Pharmacokinetics parameters, including elimination half life (t1/2) (IV), area under the curve (AUC) and oral bioavailability (F %), etc. were calculated by non-compartmental model using WinNonlin.

[3] = target: GLP-1 Receptor (Homo sapiens, UniProt P43220); assay: GLP-1R agonist cAMP stimulation assay (HEK293/GLP1R/CRE-LUC cells, Cisbio cAMP dynamic 2 kit); assay type: cell-based
Sequence of GLP-1 Receptor (P43220 24-463, species assumed): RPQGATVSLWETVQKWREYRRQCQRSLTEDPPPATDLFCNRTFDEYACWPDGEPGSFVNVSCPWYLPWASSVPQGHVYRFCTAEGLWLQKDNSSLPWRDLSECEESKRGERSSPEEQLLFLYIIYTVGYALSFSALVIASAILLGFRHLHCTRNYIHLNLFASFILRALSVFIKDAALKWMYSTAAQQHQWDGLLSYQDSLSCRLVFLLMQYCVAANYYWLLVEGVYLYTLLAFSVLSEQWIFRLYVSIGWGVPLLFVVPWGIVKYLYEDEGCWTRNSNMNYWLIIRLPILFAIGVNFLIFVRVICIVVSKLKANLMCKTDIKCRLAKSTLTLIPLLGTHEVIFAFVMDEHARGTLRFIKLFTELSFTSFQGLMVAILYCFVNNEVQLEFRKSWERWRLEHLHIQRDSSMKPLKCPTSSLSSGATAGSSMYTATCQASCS
Outline: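 cAMP was measured by HTRF (d2/cryptate, 1 h RT, 665 and 615 nm). Beforehand, compounds in half-log series were incubated 30 min at 37 °C with GLP-1R/CRE-Luc HEK293 cells (1000 per well) in IBMX (0.5 mM)-containing DPBS/BSA. Activity scaled between vehicle and maximal control.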

[4] = Caco-2 permeability / efflux study; assay type: in vitro ADME; details: human; for Papp at 2 h, 10 μM: Caco-2, pH 7.4, 10 μM, 37° C., pH 7.4, 0.5% BSA, read-out: Caco-2 Perm; for efflux ratio at 2 h, 10 μM: Caco-2, pH 7.4, Caco-2 efflux ratio
Experimental: Incubations with Caco-2 cell monolayers were performed in duplicate in a 96-well Transwell plate. Transport buffer solution (HBSS, 10 mM HEPES, pH 7.4, with 0.5% BSA) containing test article (10 μM), and either the control compounds metoprolol (10 μM), cimetidine (10 μM) and erythromycin (10 μM), was added to appropriate donor wells of the apical or basolateral plate. The transport buffer with DMSO was added to appropriate wells of receiver wells. Following incubation at 37° C. for 2 hours, the cell plates were removed and 50 μL samples from both apical and basolateral sides were transferred into new 96-well plates. Subsequently, 200 μL of acetonitrile containing internal standard was added to all samples to precipitate protein prior to analysis by UPLC-MS/MS. Lucifer yellow was used as a marker to confirm the integrity of the cell monolayers after 2 hours incubation.

[5] = Rat PO PK study, Method B; assay type: in vivo, male Sprague Dawley (SD) rats; details: for AUC / Cmax: male, Sprague Dawley, plasma, 10% solutol HS 15
Experimental: Pharmacokinetics (PK) study was conducted on male Sprague Dawley (SD) rats by oral gavage (PO). Rats in PO route (n=3) were free access to food and water. […] On the day of experiment, test article was administered via oral gavage (commonly at 10, 30, or 100 mg/kg, with dose volume as 10 mL/kg). Blood samples were collected via serial bleeding at ˜8 time points from 0.25 to 24 hrs post dose. Approximate 150 μL of blood/time point was collected into KzEDTA tube via tail vein or jugular vein. Blood samples were put on wet ice and centrifuged to obtain plasma samples and plasma samples were submitted to LC-MS/MS for sample analysis. Pharmiacokinetics parameters, including Cmax, and area under the curve (AUC), etc. were calculated by non-compartmental model using WinNonlin.

[6] = Table 3, HEK293/GLP1R/CRE-LUC cells, 30 min
[7] = male, Sprague Dawley, plasma, PO, 2 mg/kg, *obtained under method 3A

| Structure (SMILES) | solubility at 4 h [1] | AUC (ng · h/mL)_free form/dose ([2]; PO, 5 mpk, free form) | half-life ([2]; male, Sprague Dawley, plasma) | bioavailability ([2]; male, Sprague Dawley, plasma) | EC50 [3, 6] | EC50 ([3]; Table 4) | Papp at 2 h, 10 μM [4] | efflux ratio at 2 h, 10 μM [4] | AUC [2, 7] | Cmax [2, 7] | rat PK dose proportionality of exposure ([5]; free form, same formulation) | AUC ([5]; 10 mg/kg) | Cmax ([5]; 10 mg/kg) | AUC ([5]; 30 mg/kg) | Cmax ([5]; 30 mg/kg) |
| --- | --- | --- | --- | --- | --- | --- | --- | --- | --- | --- | --- | --- | --- | --- | --- |
| Cc1cc(-n2nc3c(c2-n2ccn(-c4ccc5c(cnn5C)c4F)c2=O)[C@H](C)N(C(=O)c2cc4cc([C@H]5CCOC(C)(C)C5)ccc4n2[C@@]2(c4noc(=O)[nH]4)C[C@@H]2C)CC3)cc(C)c1F [Compound C-5, reference compound] | 0.4 µM (≈ 0.353 µg/mL) |  | 8.1 h | 36% |  |  | 0.21 ×10⁻⁶ cm/s |  | 4400 ng·h/mL | 573 ng/mL | plateaued at 10 mg/kg | 14500 ng·h/mL | 1250 ng/mL | 13000 ng·h/mL | 1010 ng/mL |
| CN=S(=O)(c1ccc(-n2ccn(-c3c4c(nn3-c3cc(C)c(F)c(C)c3)CCN(C(=O)c3cc5cc([C@H]6CCOC(C)(C)C6)ccc5n3[C@@]3(c5noc(=O)[nH]5)C[C@@H]3C)[C@H]4C)c2=O)c(F)c1Cl)C1CC1 (single isomer, unassigned) [Compound 214] | 9.9 µM (≈ 9.71 µg/mL) |  |  |  | 0.033 nM | 0.033 nM | 0.34 ×10⁻⁶ cm/s | 11.4 |  |  |  |  |  |  |  |
| Cc1cc(-n2nc3c(c2-n2ccn(-c4ccc(S(=O)(=O)C5CC5)cc4)c2=O)[C@H](C)N(C(=O)c2cc4cc(C5CCOCC5)ccc4n2[C@@]2(c4noc(=O)[nH]4)C[C@@H]2C)CC3)cc(C)c1F [Compound C-2, reference compound] | 9.3 µM (≈ 8.25 µg/mL) |  |  |  |  | 0.043 nM | < 0.05 ×10⁻⁶ cm/s | > 62.6 |  |  |  |  |  |  |  |

Further lines, results first:

| solubility at 4 h [1] | AUC (ng · h/mL)_free form/dose ([2]; PO, 5 mpk, free form) | half-life ([2]; male, Sprague Dawley, plasma) | bioavailability ([2]; male, Sprague Dawley, plasma) | EC50 [3, 6] | EC50 ([3]; Table 4) | Papp at 2 h, 10 μM [4] | efflux ratio at 2 h, 10 μM [4] | AUC [2, 7] | Cmax [2, 7] | rat PK dose proportionality of exposure ([5]; free form, same formulation) | AUC ([5]; 10 mg/kg) | Cmax ([5]; 10 mg/kg) | AUC ([5]; 30 mg/kg) | Cmax ([5]; 30 mg/kg) | Structure (SMILES) |
| --- | --- | --- | --- | --- | --- | --- | --- | --- | --- | --- | --- | --- | --- | --- | --- |
| 2.04 µM (≈ 1.85 µg/mL) | 4,276/5 mpk ng · h/mL | 1.6 h | 32% | 0.023 nM | 0.023 nM | 0.33 ×10⁻⁶ cm/s | 26 |  |  |  |  |  |  |  | CCS(=O)(=NC)c1ccc(-n2ccn(-c3c4c(nn3-c3cc(C)c(F)c(C)c3)CCN(C(=O)c3cc5cc(C6CCOCC6)ccc5n3[C@@]3(c5noc(=O)[nH]5)C[C@@H]3C)[C@H]4C)c2=O)c(F)c1 (single isomer, unassigned) [Compound 149] |
| 4.05 µM (≈ 3.72 µg/mL) |  |  |  | 0.03 nM | 0.031 nM | 0.34 ×10⁻⁶ cm/s | 38.5 |  |  |  |  |  |  |  | CN=S(=O)(c1ccc(-n2ccn(-c3c4c(nn3-c3cc(C)c(F)c(C)c3)CCN(C(=O)c3cc5cc(C6CCOCC6)ccc5n3[C@@]3(c5noc(=O)[nH]5)C[C@@H]3C)[C@H]4C)c2=O)c(F)c1)C1CC1 (single isomer, unassigned) [Compound 221] |
| 4 µM (≈ 3.5 µg/mL) |  |  |  |  | 0.022 nM | 0.126 ×10⁻⁶ cm/s | 51.7 |  |  |  |  |  |  |  | CCS(=O)(=O)c1ccc(-n2ccn(-c3c4c(nn3-c3cc(C)c(F)c(C)c3)CCN(C(=O)c3cc5cc(C6CCOCC6)ccc5n3[C@@]3(c5noc(=O)[nH]5)C[C@@H]3C)[C@H]4C)c2=O)cc1 [Compound C-1, reference compound] |
| 2.56 µM (≈ 2.27 µg/mL) |  |  |  | 0.017 nM | 0.017 nM | 0.36 ×10⁻⁶ cm/s | 24.1 |  |  |  |  |  |  |  | CCS(=O)(=NC)c1ccc(-n2ccn(-c3c4c(nn3-c3cc(C)c(F)c(C)c3)CCN(C(=O)c3cc5cc(C6CCOCC6)ccc5n3[C@@]3(c5noc(=O)[nH]5)C[C@@H]3C)[C@H]4C)c2=O)cc1 (single isomer, unassigned) [Compound 144] |

Reference: US12291529B2, “Heterocyclic GLP-1 agonists” (Gasherbrum Bio, Inc., priority 2023, dated 2025)
